Literature values as cited in patent US11504319B2, “Process of coloring keratinous material comprising the use of an organosilicon compound, an effect pigment, a further coloring compound and a film-forming polymer III” (Henkel AG & Co. KGaA, priority 2019, dated 2022).

Conditions: 25° C.

| SMILES | solubility in water | solubility in water (in words) |
| --- | --- | --- |
| O=S(=O)([O-])c1ccc(N=Nc2c(O)ccc3ccccc23)cc1.[Na+] [Acid Orange 7, sodium salt of 4-[(2-hydroxy-1-naphthyl)azo]benzene sulphonate] | more than 7 g/L | – |
| O=C([O-])c1c(Cl)c(Cl)c(Cl)c(Cl)c1-c1c2c(Br)cc(=O)c(Br)c-2oc2c(Br)c(O)cc(Br)c12.O=C([O-])c1c(Cl)c(Cl)c(Cl)c(Cl)c1-c1c2c(Br)cc(=O)c(Br)c-2oc2c(Br)c(O)cc(Br)c12.[Na+].[Na+] [Acid Red 92, disodium salt of 3,4,5,6-tetrachloro-2-(1,4,5,8-tetrabromo-6-hydroxy-3-oxoxanthen-9-yl)benzoic acid] | greater than 10 g/L | – |
| Nc1cc(S(=O)(=O)[O-])cc2cc(S(=O)(=O)[O-])c(N=Nc3ccccc3)c(O)c12.[Na+].[Na+] [Acid Red 33, disodium salt of 5-amino-4-hydroxy-3-(phenylazo)-naphthalene-2,7-disulphonate] | 2500 µg/mL | – |
| O=C([O-])C1=NN(c2ccc(S(=O)(=O)[O-])cc2)C(=O)C1N=Nc1ccc(S(=O)(=O)[O-])cc1.[Na+].[Na+].[Na+] (stereo not shown) [Acid Yellow 23, trisodium salt of 4,5-dihydro-5-oxo-1-(4-sulfophenyl)-4-((4-sulfophenyl)azo)-1H-pyrazole-3-carboxylic acid] | – | highly soluble |
